Assay results taken from patent US4550116A, “Piperidine derivatives” (Fordonal, S.A., priority 1983, dated 1985).

Columns and labels:
rat hindquarters = test: Rat hindquarter preparation, responses to high-K+ Krebs' solution; conditions: for duration of anti-vasoconstrictor effects, compared with terfenadine and cinnarizine: in vitro, rat hindquarter preparation; for TEST A RAT HINDQUARTERS % Inhibition: maximum percentage inhibition, 10^-7 M perfused for 20 minutes, 80 mM K+; for TEST A RAT HINDQUARTERS % Recovery: recovery of response at 1 h following perfusion with normal Krebs' solution, 10^-7 M
Description: A Rat hindquarter preparation
Responses of rat hindquarters perfused at constant rate were elicited by high -K^+ (80 mM) Krebs' solution. Test compounds (10^-7 M) were perfused for 20 minutes and then compound-free Krebs' perfusion was resumed for 40 min.

histamine H1-receptor = test: Antihistamine activity in anaesthetized rats (vasodepressor responses to histamine); assay type: in vivo, rat; conditions: 0.3 mg/kg i.v.; pentobarbitone anaesthetized rats
Description: B. Antihistamine activity in anaesthetized rats
Test compounds were administered to pentobarbitone anaesthetized rats at 0.3 mg/kg i.v. following stable, submaximal, vasodepressor responses to histamine.

adrenaline = test: Protection against a lethal dose of adrenaline; assay type: in vivo, swiss mice; conditions: Mus musculus; 100 mg/kg oral, 1 h before 2 mg/kg intravenous adrenaline; mice; read-out: TEST D ANTI-ADRENALINE (animals surviving 15 min later)
Description: D. Protection against a lethal dose of adrenaline
Groups of 10 .male. swiss mice (25±3 g) were pretreated orally with compounds (100 mg/kg) suspended in carboxymethyl cellulose 1 h before receiving an intraveneous injection of 2 mg/kg adrenaline. The number of animals surviving 15 min later was noted and expressed as a percentage.

histamine aerosol = test: Histamine aerosol, protection of guinea-pigs; assay type: in vivo, guinea-pig
in vivo = conditions: mouse, oral, mice, 48 hour period, unit from method b50, read-out: TEST E ACUTE TOXICITY (approximate LD50)
Description: Acute toxicity was assessed in groups of 3 mice given the test compounds suspended in 1% carboxymethylcellulose at 30, 100, 300 and 1000 mg/kg orally.

[1] = 0.3 mg/kg oral, 1 hour before 5 minute challenge of nebulized histamine, groups of 5

| Structure (SMILES) | duration of anti-vasoconstrictor effects, compared with terfenadine and cinnarizine (rat hindquarters) | TEST A RAT HINDQUARTERS % Inhibition (rat hindquarters) [%] | TEST A RAT HINDQUARTERS % Recovery (rat hindquarters) [%] | TEST B ANTIHISTAMINE IN RAT (inhibition of the histamine response) (histamine H1-receptor) | responders at 100 mg/kg (adrenaline) [%] | TEST C ANTIHISTAMINE AEROSOL (protection) (histamine aerosol; [1]) | TEST C ANT[…] (protection) (histamine aerosol; [1]) | H1-histamine receptor antagonist properties, orally against histamine aerosol (histamine aerosol; oral) | LD50 at 48 h (in vivo) [mg/kg] |
| --- | --- | --- | --- | --- | --- | --- | --- | --- | --- |
| O=C(CCCN1CCC(OC(c2ccccc2)c2ccccc2)CC1)c1ccc(CC2CC2)cc1 [Compound 4, 4-diphenylmethoxy-1-[3-(4-cyclopropylmethylbenzoyl)propyl]-piperidine] | much longer lasting | 75 | 40 | ++ (25-50%) | 40 |  |  |  |  |
| CC(C)(C)c1ccc(C(O)CCCN2CCC(OC(c3ccccc3)c3ccccc3)CC2)cc1 (stereo not drawn) [Compound 8, 4-diphenylmethoxy-α-(4-tert-butylphenyl)-1-piperidinebutanol] |  | 69 | 58 | ++ (25-50%) | 60 | ++ (25-50%) |  |  |  |
| CCc1ccc(C(=O)CCCN2CCC(OC(c3ccccc3)c3ccccc3)CC2)cc1 [Compound 3, 4-diphenylmethoxy-1-[3-(4-ethylbenzoyl)propyl]-piperidine] | much longer lasting | 65 | 50 | +++ (50-75%) | 20 |  |  |  |  |
| CC(C)(C)c1ccc(C(=O)CCCN2CCC(OC(c3ccccc3)c3cccs3)CC2)cc1 (stereo not drawn) [Compound 5, 4-[α-(2-thienyl)benzyloxy]-1-[3-(4-tert-butylbenzoyl)propyl]-piperidine] | much longer lasting | 65 | 40 | +++ (50-75%) |  |  |  |  |  |
| CC(C)(C)c1ccc(C(=O)CCCN2CCC(OC(c3ccccc3)c3ccccc3)CC2)cc1 [Compound 1, 4-diphenylmethoxy-1-[3-(4-tert-butylbenzoyl)propyl]-piperidine] |  |  | 56 |  | 50 |  | +++ (>50% protection) | extremely potent |  |
| CC(C)c1ccc(C(=O)CCCN2CCC(OC(c3ccccc3)c3ccccc3)CC2)cc1 [Compound 2, 4-diphenylmethoxy-1-[3-(4-isopropylbenzoyl)propyl]-piperidine] |  | 59 | 50 | +++ (50-75%) | 50 |  |  |  | > 1000 |
| OC(CCCN1CCC(OC(c2ccccc2)c2ccccc2)CC1)c1ccc(C2CCCCC2)cc1 (stereo not drawn) [Compound 6, 4-diphenylmethoxy-α-(4-cyclohexylphenyl)-1-piperidinebutanol] |  | 57 | 55 | ++ (25-50%) | 20 |  |  |  |  |
| CC(C)(C)c1ccc(C(O)CCCN2CCC(C(O)(c3ccccc3)c3ccccc3)CC2)cc1 (stereo not drawn) [TERFENADINE, α-[4-(1,1-dimethylethyl)phenyl]-4-(hydroxydiphenylmethyl)-1-piperidinebutanol, reference compound] |  | 44 | 100 |  | 20 | + (10-25%) |  |  | > 1000 |
| CC(C)(C)c1ccc(C(=O)CCCN2CCC(OC(c3ccc(F)cc3)c3ccc(F)cc3)CC2)cc1 [Compound 7, 4-di(4-fluorophenyl)methoxy-1-[3-(4-tert-butylbenzoyl)propyl]-piperidine] | much longer lasting | 62 | 13 | +++ (50-75%) | 40 |  |  |  |  |
